The values that follow are results of earlier work, collected in publication PMC11912748, “Image-Guided Monitoring of Mitochondria and Blood–Brain Barrier Dysfunction in Amyotrophic Lateral Sclerosis Mice” (Biomaterials Research, 2025).

The conditions of this data set: in DMSO, cited from earlier work.

In the case of `CC1(C)C(/C=C/C=C/C=C/C=C2\N(CCCCS(=O)(=O)O)c3ccc4ccccc4c3C2(C)C)=[N+](CCCCS(=O)(=O)[O-])c2ccc3ccccc3c21` [ICG, indocyanine green], the Molar absorptivity is given as 232,000 M^−1 cm^−1. Besides, under “reference standard”, the “QY (quantum yield)” value is on record as 13%.
